# Reference: patent US20140234502A1, “Treatment of Produce” (Rohm and Haas Company, priority 2009, published 2014)
# Columns and labels:
# Format in all cases: in vivo, pear
# Packam's Pears = assay: Firmness of Packam's pears by penetrometer after treatment, non-ambient storage and shelf life; conditions: South Africa, ambient 5 days, listed as 600
# Excerpt: (§1) Pears (Conference, William's/Bartlett, or Packam's) were harvested at maturity for long storage. Number of fruits and replicates were selected according to the size of the chamber in which to apply 1-MCP and according to the statistical design. Airtight containers in the range of 1 cubic meter were used for the application of both 1-MCP and ethylene. 1-MCP was released from SmartFresh™ powder that contained 0.14% 1-MCP by weight (obtained from AgroFresh, Inc.). The amount of that SmartFresh™ powder was chosen to yield the target atmospheric concentration of 1-MCP in the chosen container. For example, the 1-MCP released from 1000 mg of that SmartFresh™ powder in 1 cubic meter yielded 1-MCP concentration in the atmosphere of 625 ppb.
# (§2) The chosen amount of SmartFresh™ powder was dissolved in water into a tight flask and shaken until all the powder was dissolved. The flask was then put it into the airtight container and opened, to release the 1-MCP. At the same time of the opening of the 1-MCP flask, ethylene was injected with a syringe into the airtight container. Ethylene was taken from a compressed tank at known concentration: either taken directly or released into a flask. In the latter case the concentration was measured by gas-chromatograph to determine the quantity of volume to inject into the airtight container to get the target concentration.
# (§3) The exposure to atmosphere containing either 1-MCP alone or 1-MCP and ethylene was done on cold pears (already cooled down to non-ambient storage temperature) within a maximum of 7 days from harvest and lasted 24 hours. At the end of the application, the airtight container was vented for 15 minutes and the fruits were put into RA or CA storage. RA storage was at temperature of −1° C. to 1° C. and at relative humidity of 80% to 98%. CA storage had the same temperature and humidity of RA storage, had oxygen level of 1% to 3%, by volume based on the volume of the atmosphere and had carbon dioxide level of 0.5% to 2%, by volume based on the volume of the atmosphere.
# In addition, samples of pears (from the same orchards from which pears treated with 1-MCP alone or 1-MCP and ethylene were harvested) were put into an airtight container for 24 hours at the temperature as the treated pears in order to reproduce the same environmental conditions. Then they were stored in the same rooms or in separated rooms in the same conditions of RA and CA as the treated pears. […]
# Pears denoted with a single number (e.g., “300”) received 1-MCP treatment with that concentration, in ppb, of 1-MCP in the atmosphere (e.g., 300 ppb) and were not exposed to exogenous ethylene. […] Reported quantity is “firmness” (“F”), the penetrometer force in kgf. […]
# Conference Pears [1] = assay: Firmness of Conference pears by penetrometer after treatment, non-ambient storage and shelf life; set-up: key to SW France F (firmness) / Italy F (firmness) / Average F (firmness): penetrometer force in kgf (8 mm probe); conditions: for ES A F (firmness): farm ES A; for ES B F (firmness): farm ES B; for IT F (firmness): farm IT; for firmness: Example 9, CA 6 months; for Italy F (firmness) / firmness: Italy; for Orchard #1 F (firmness) / Orchard #2 F (firmness) / Orchard #3 F (firmness): Example 11, Spain, RA 3 months
# Excerpt: as §1, §2, §3
# In addition, samples of pears (from the same orchards from which pears treated with 1-MCP alone or 1-MCP and ethylene were harvested) were put into an airtight container for 24 hours at the temperature as the treated pears in order to reproduce the same environmental conditions. Then they were stored in the same rooms or in separated rooms in the same conditions of RA and CA as the treated pears. These pears received no exposure to 1-MCP, exogenous ethylene, or any combination thereof, and they are labeled “control” below.
# Length of non-ambient storage at present commercial temperature and storage regime was generally of 2-4 months in RA and 6 months in CA, unless otherwise specified, according to normal commercial practice.
# All pears received the same progression of non-ambient storage followed by exposure to ambient conditions (“shelf life”).
# Pears denoted with a single number (e.g., “300”) received 1-MCP treatment with that concentration, in ppb, of 1-MCP in the atmosphere (e.g., 300 ppb) and were not exposed to exogenous ethylene. Pears denoted with two numbers (e.g. “300+600”) were treated with both that concentration in ppb of 1-MCP and that concentration in ppb of ethylene (e.g., 300 ppb of 1-MCP and 600 ppb of ethylene). The firmness of pears was tested using commercial penetrometers with test probe of 8 mm diameter. Reported quantity is “firmness” (“F”), the penetrometer force in kgf.
# Conference Pears [2] = assay: Color rating of Conference pears; conditions: ambient 5-8 days; for Italy color / SW France color: scale of 0 (green) to 5 (yellow)
# Excerpt: as §1, §2, §3
# Pears were tested for firmness, as described above, and were rated for color on a scale of 0 (green) to 5 (yellow).
# Conference Pears [3] = assay: Inspection of Conference pears for rot, bruising and internal browning
# Excerpt: as §1, §2, §3
# After RA storage, pears were exposed to ambient for the number of days shown below and then inspected for rot, bruising, and internal browning (“I.B.”). Results shown are the percentage of pears having the disorder.
# Pears from SW France were examined as in Example 7, and the percent disordered fruit was as follows: […]
# Conference Pears [4] = assay: Examination of Conference pears for scald; conditions: Example 9, CA 6 months; for percent with scald: Italy
# Excerpt: as §1, §2, §3
# Pears from Italy (the same pears whose firmness is reported herein above in Example 5) were examined for scald after exposure to ambient conditions for the number of days shown below.
# [5] = test system: Pears (Conference, William's/Bartlett, or Packam's); assay: Firmness of pears, summary over all Examples; conditions: each of the Examples; samples exposed to 1-MCP and not to ethylene
# Excerpt: as §1
# The chosen amount of SmartFresh™ powder was dissolved in water into a tight flask and shaken until all the powder was dissolved. The flask was then put it into the airtight container and opened, to release the 1-MCP. […] In the latter case the concentration was measured by gas-chromatograph to determine the quantity of volume to inject into the airtight container to get the target concentration. […]
# Pears denoted with a single number (e.g., “300”) received 1-MCP treatment with that concentration, in ppb, of 1-MCP in the atmosphere (e.g., 300 ppb) and were not exposed to exogenous ethylene. […] Reported quantity is “firmness” (“F”), the penetrometer force in kgf.
# [6] = Example 3, RA 3 months, ambient 5 to 8 days
# [7] = Example 4, CA 6 months, ambient 5 to 8 days
# [8] = Example 5, RA 3 months, ambient 5-8 days
# [9] = Example 6, CA 6 months, ambient 5-8 days
# [10] = Example 7, RA 4 months, SW France, 13 ambient days
# [11] = Example 8, CA 6 months, ambient 13 days, SW France
compound,measurement,setting,value
"CC1=CC1 [600(C), 1-MCP]",8 weeks F (firmness),Packam's Pears; RA for 8 weeks,6.5 kgf
same,12 weeks F (firmness),Packam's Pears; RA for 12 weeks,6.3 kgf
same,"AV F (firmness), average of the results from the seven farms",Conference Pears [1]; [6],5.7 kgf
same,ES A F (firmness),Conference Pears [1]; [6],6.3 kgf
same,ES B F (firmness),Conference Pears [1]; [6],6.3 kgf
same,FR A F (firmness),"Conference Pears [1]; Example 3, RA 3 months, ambient 5 to 8 days, farm FR A",5.4 kgf
same,FR B F (firmness),"Conference Pears [1]; Example 3, RA 3 months, ambient 5 to 8 days, farm FR B",5.2 kgf
same,IT F (firmness),Conference Pears [1]; [6],5.7 kgf
same,NL A F (firmness),"Conference Pears [1]; Example 3, RA 3 months, ambient 5 to 8 days, farm NL A",5.3 kgf
same,NL B F (firmness),"Conference Pears [1]; Example 3, RA 3 months, ambient 5 to 8 days, farm NL B",5.6 kgf
same,"Av F (firmness), average of the results from the six farms",Conference Pears [1]; [7],5.4 kgf
same,ES A F (firmness),Conference Pears [1]; [7],6.1 kgf
same,ES B F (firmness),Conference Pears [1]; [7],5.6 kgf
same,FR F (firmness),"Conference Pears [1]; Example 4, CA 6 months, ambient 5 to 8 days, farm FR",5.1 kgf
same,IT F (firmness),Conference Pears [1]; [7],4.9 kgf
same,NL A F (firmness),"Conference Pears [1]; Example 4, CA 6 months, ambient 5 to 8 days, farm NL A",5.1 kgf
same,NL B F (firmness),"Conference Pears [1]; Example 4, CA 6 months, ambient 5 to 8 days, farm NL B",5.7 kgf
same,Italy F (firmness),Conference Pears [1]; [8],5.7
same,SW France F (firmness),Conference Pears [1]; [8],5.2
same,Italy F (firmness),Conference Pears [1]; [9],4.9
same,SW France F (firmness),Conference Pears [1]; [9],5.1
same,Average F (firmness),"Conference Pears [1]; Example 6, CA 6 months, ambient 5-8 days, average of SW France and Italy",5.0
same,firmness,Conference Pears [1]; 0 ambient days,6.8 kgf
same,firmness,Conference Pears [1]; 7 ambient days,4.9 kgf
same,"Average F (firmness), average of the two orchards","Conference Pears [1]; Example 10, RA 3 months, ambient 5 days",5.58 kgf
same,NL A F (firmness),"Conference Pears [1]; Example 10, RA 3 months, ambient 5 days, NL A",5.65 kgf
same,NL B F (firmness),"Conference Pears [1]; Example 10, RA 3 months, ambient 5 days, NL B",5.52 kgf
same,Orchard #1 F (firmness),Conference Pears [1]; 0 days ambient,5.95 kgf
same,Orchard #2 F (firmness),Conference Pears [1]; 0 days ambient,6.07 kgf
same,Orchard #3 F (firmness),Conference Pears [1]; 0 days ambient,6.46 kgf
same,Orchard #1 F (firmness),Conference Pears [1]; 7 days ambient,5.95 kgf
same,Orchard #2 F (firmness),Conference Pears [1]; 7 days ambient,6.03 kgf
same,Orchard #3 F (firmness),Conference Pears [1]; 7 days ambient,6.30 kgf
same,Orchard #1 F (firmness),Conference Pears [1]; 12 days ambient,5.75 kgf
same,Orchard #2 F (firmness),Conference Pears [1]; 12 days ambient,6.17 kgf
same,Orchard #3 F (firmness),Conference Pears [1]; 12 days ambient,6.58 kgf
same,Italy color,"Conference Pears [2]; Example 5, RA 3 months",2.1
same,SW France color,"Conference Pears [2]; Example 5, RA 3 months",2.95
same,Italy color,"Conference Pears [2]; Example 6, CA 6 months",3.4
same,SW France color,"Conference Pears [2]; Example 6, CA 6 months",2.65
same,Average color,"Conference Pears [2]; Example 6, CA 6 months, average of SW France and Italy, scale 0 (green) to 5 (yellow)",3.0
same,percentage of pears having internal browning (I.B.),"Conference Pears [3]; Example 7, RA 4 months, Loire, France, 11 ambient days",0 percentage
same,percentage of pears having internal browning (I.B.),"Conference Pears [3]; Example 7, RA 4 months, Loire, France, 13 ambient days",0 percentage
same,percentage of pears having internal browning (I.B.),"Conference Pears [3]; Example 7, RA 4 months, Loire, France, 15 ambient days",0 percentage
same,percentage of pears having bruising,Conference Pears [3]; [10],0 percentage
same,percentage of pears having internal browning (I.B.),Conference Pears [3]; [10],0 percentage
same,percentage of pears having rot,Conference Pears [3]; [10],0 percentage
same,percent disordered fruit: I.B.,Conference Pears [3]; [11],30%
same,percent disordered fruit: rot,Conference Pears [3]; [11],13%
same,percent with scald,Conference Pears [4]; 0 ambient days,0%
same,percent with scald,Conference Pears [4]; 7 ambient days,1%
"CC1=CC1 [Sample 1-MCP, 1-MCP]",color rating (in words),"Conference Pears [2]; Example 6, CA 6 months, on average",undesirably too green color rating
same,percentage of disorders (in words),"Conference Pears [3]; Example 7, RA 4 months",lower percentage of disorders than the control pears
same,diseased fruits (in words),"Conference Pears [3]; Example 8, CA 6 months, ambient 13 days",fewer diseased fruits that the control sample
same,resistance to deterioration (in words),"Conference Pears [3]; Examples 7, 8, and 9",showed resistance to deterioration
same,pears with scald (in words),Conference Pears [4],fewer pears with scald than the control group
same,firmness (in words),[5],undesirably high
